The results in this text go back to US20140051679A1, “KINASE INHIBITORS AND METHOD OF TREATING CANCER WITH SAME” (UNIVERISTY HEALTH NETWORKS, priority 2011, published 2014).

In assay [1] the target is T1, human TTK (Homo sapiens, UniProt P33981).
T1 construct: amino terminal GST fusion of full length human TTK; purchased Invitrogen
T1 sequence (P33981 1-857): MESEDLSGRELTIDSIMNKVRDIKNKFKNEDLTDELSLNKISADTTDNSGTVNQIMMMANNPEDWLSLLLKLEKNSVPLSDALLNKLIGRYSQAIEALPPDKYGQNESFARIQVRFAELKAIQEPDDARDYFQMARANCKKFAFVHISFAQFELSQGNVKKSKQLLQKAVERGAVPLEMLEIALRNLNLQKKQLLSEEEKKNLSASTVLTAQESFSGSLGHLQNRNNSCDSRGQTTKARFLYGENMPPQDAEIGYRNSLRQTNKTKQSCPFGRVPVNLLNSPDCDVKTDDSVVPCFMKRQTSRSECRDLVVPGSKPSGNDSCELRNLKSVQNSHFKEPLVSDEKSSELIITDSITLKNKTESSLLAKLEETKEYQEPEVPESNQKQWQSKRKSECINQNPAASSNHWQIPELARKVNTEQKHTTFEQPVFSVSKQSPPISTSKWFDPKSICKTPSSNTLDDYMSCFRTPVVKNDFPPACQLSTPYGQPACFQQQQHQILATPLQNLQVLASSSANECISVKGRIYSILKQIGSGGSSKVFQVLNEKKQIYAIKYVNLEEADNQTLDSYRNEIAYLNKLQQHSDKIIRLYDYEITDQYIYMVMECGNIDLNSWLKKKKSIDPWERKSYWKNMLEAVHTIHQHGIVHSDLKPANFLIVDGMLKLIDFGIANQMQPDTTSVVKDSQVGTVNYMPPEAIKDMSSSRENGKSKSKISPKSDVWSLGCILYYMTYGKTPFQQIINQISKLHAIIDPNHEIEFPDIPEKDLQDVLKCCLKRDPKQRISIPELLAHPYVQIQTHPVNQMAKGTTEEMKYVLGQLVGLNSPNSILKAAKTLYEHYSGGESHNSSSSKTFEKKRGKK
Put plainly: TTK inhibition assay (indirect ELISA). The settings on record: GST-TTK 0.68 nM, 16 μM ATP; read-out: IC50 Ranges TTK. Format: biochemical. (In general: An ELISA detects its analyte on a solid surface through an enzyme-linked reagent.)

The target in assay [2] is T2, human PLK4 (Homo sapiens, UniProt O00444).
T2 construct: amino terminal GST fusion of residues 1-391 of human PLK4; made in house; host or cells: E. coli
T2 sequence (O00444 1-391): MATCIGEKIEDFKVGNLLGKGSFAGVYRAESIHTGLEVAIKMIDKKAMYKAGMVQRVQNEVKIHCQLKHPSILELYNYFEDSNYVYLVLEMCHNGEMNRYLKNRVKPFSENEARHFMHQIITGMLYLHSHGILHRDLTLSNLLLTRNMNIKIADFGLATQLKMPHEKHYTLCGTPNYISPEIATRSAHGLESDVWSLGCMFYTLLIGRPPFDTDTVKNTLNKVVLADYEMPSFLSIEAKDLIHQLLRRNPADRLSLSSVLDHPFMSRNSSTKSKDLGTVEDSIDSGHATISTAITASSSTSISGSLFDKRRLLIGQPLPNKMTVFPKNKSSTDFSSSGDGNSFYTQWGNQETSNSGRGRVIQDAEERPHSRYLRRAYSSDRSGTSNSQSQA
Nature of the assay: PLK4 inhibition assay (indirect ELISA). The assay is classed as biochemical. The settings on record: GST-PLK4 4 nM, 15 μM ATP; read-out: IC50 Ranges PLK4. The method in brief: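 Dephosphorylated GST-tagged human PLK4 (residues 1-391, E. coli), 4 nM, preincubated 15 min with compound, then reacted 30 min with 15 μM ATP on MBP-coated plates (50 mM HEPES pH 7.5, 10 mM MgCl2, 0.01% Brij 35). Phospho-MBP detected by antibody ELISA at 450 nm. Tested at 10 μM or 10-point titrations; IC50 from 4-parameter logistic fit.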

Assay [3] has as its system MDA-MB-231 breast cancer cells. Nature of the assay: Cell growth inhibition, Sulforhodamine B assay, MDA-MB-231. The assay is classed as cell-based. As to conditions: Homo sapiens, 120 h, 5 days culture, SRB assay, read-out: Cell Line GI50 Range MDA-MB-231. Background: In SRB staining, fixed cells bind dye roughly in proportion to their protein.
Description: Breast cancer cells (MDA-MB-231, MDA-MB-468), colon cancer cells (HCT116, HT29) and ovarian cancer cells (PA-1, OVCAR-3) were seeded (1000 to 4000 in 80 μl per well depending on the cell growth rate) into 96 well plates 24 hours before compound overlay. Compounds were prepared as 10 mM stock solutions in 100% DMSO which were diluted with DMEM (Dulbecco's Modified Eagle's Medium) cell growth Medium (Invitrogen, Burlington, ON, Canada) containing 10% FBS (Fetal Bovine Serum) to concentrations ranging from 50 nM to 250 μM. Aliquots (20 μl) from each concentration were overlaid to 80 μl of the pre-seeded cells in the 96 well plates to make final concentrations of 10 nM to 50 μM. The cells were cultured for 5 days before the Sulforhodamine B assay (SRB) was performed to determine the compound's cell growth inhibition activity.
Sulforhodamine B (purchased from Sigma, Oakville, ON, Canada) is a water-soluble dye that binds to the basic amino acids of the cellular proteins. Thus, colorimetric measurement of the bound dye provides an estimate of the total protein mass that is related to the cell number. the cells are fixed in situ by gently aspirating off the culture media and adding 50 μl ice cold 10% Trichloroacetic Acid (TCA) per well and incubate at 4° C. for 30-60 min, The plates are washed with water five times and allowed to air dry for 5 min. Addition of 50 μl 0.4% (w/v) SRB solution in 1% (v/v) acetic acid to each well and incubatation for 30 min at RT completes the staining reaction. Following staining, plates are washed four times with 1% acetic acid to remove unbound dye and then allowed to air dry for 5 min. The stain is solubilized with 100 μl of 10 mM Tris pH 10.5 per well. Absorbance is read at 570 nm.
The percentage (%) of relative growth inhibition was calculated by comparing to DMSO treated only cells (100%). […] The GI50 was calculated using GraphPad PRISM software (GraphPad Software, Inc., San Diego, Calif., USA).
For assay [4], the system named is MDA-MB-468 breast cancer cells. Nature of the assay: Cell growth inhibition, Sulforhodamine B assay, MDA-MB-468. The assay is classed as cell-based. The settings on record: Homo sapiens, 120 h, 5 days culture, SRB assay, read-out: Cell Line GI50 Range MDA-MB-468.
For assay [5], the system named is HCT116 colon cancer cells. Put plainly: Cell growth inhibition, Sulforhodamine B assay, HCT116. The settings on record: Homo sapiens, HCT-116, 120 h, 5 days culture, SRB assay, read-out: Cell Line GI50 Range HCT116. Format: cell-based.
Assay [6] relates to PA-1 ovarian cancer cells. Nature of the assay: Cell growth inhibition, Sulforhodamine B assay, PA-1. The assay is classed as cell-based. As to conditions: 120 h, 5 days culture, SRB assay, read-out: Cell Line GI50 Range PA-1.
In assay [7] the test system is OVCAR-3 ovarian cancer cells. Put plainly: Cell growth inhibition, Sulforhodamine B assay, OVCAR-3. As to conditions: Homo sapiens, 120 h, 5 days culture, SRB assay, read-out: Cell Line GI50 Range OVCAR-3. Format: cell-based.
In assay [8] the test system is Colon tumor initiating cells (TICs), 12 colon. Nature of the assay: Colon tumor-initiating cell growth inhibition (Alamar Blue). The assay is classed as cell-based. As to conditions: 216 h, 9 days, read-out: GI50 range 12 colon. For orientation: The colour change of resazurin is a common sign of viable cells or microbes.
The test system of assay [9] is Ovarian TICs, 2393A ovarian. Put plainly: Ovarian tumor-initiating cell growth inhibition (Alamar Blue). Format: cell-based. The settings on record: 144 h, 6 days, read-out: GI50 range 2393A ovarian.
Assay [10] deals with T3, Aurora B (Homo sapiens, UniProt Q96GD4).
T3 construct: purchased Invitrogen PV3970
Put plainly: Aurora B inhibition assay (Z-Lyte). The settings on record: 28 nM Aurora B, 128 μM ATP; read-out: IC50 Ranges Aurora B. Format: biochemical. The protocol:
Aurora B inhibition was determined using the Z-Lyte assay kit from Invitrogen. The assay was performed using the recommended manufacturer's instructions with 128 μM ATP and 28 nM Aurora B (Invitrogen cat #PV3970). The % inhibition values were determined according to the manufacturer's directions and IC50 values were obtained using a non-linear 4 point logistic curve fit (XLfit4, IDBS)

For assay [11], the system named is HT29 colon cancer cells. Put plainly: Cell growth inhibition, Sulforhodamine B assay, HT29. Format: cell-based. As to conditions: Homo sapiens, HT-29, 120 h, 5 days culture, SRB assay, read-out: Cell Line GI50 Range HT29.

T3 sequence (Q96GD4 whole entry): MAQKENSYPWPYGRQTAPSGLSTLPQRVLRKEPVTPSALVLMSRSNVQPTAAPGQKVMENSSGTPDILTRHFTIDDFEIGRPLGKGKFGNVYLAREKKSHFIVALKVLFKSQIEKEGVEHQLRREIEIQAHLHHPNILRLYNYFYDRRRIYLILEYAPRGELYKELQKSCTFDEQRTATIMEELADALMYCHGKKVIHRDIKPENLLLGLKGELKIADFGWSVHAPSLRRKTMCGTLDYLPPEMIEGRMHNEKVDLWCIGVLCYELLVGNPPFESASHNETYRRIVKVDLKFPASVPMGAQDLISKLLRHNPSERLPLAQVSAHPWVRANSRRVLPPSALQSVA

What is called IC50 is the concentration that gives 50% inhibition. Usually GI50 stands for the concentration giving 50% growth inhibition. For `CCOC(C(=O)Nc1ccc2[nH]nc(-c3ccc(OC4CCN(C)CC4)cc3)c2c1)c1ccccc1` (centres unmarked) [Example A181, 2-ethoxy-N-(3-(4-((1-methylpiperidin-4-yl)oxy)phenyl)-1H-indazol-5-yl)-2-phenylacetamide], the IC50 in [1] and in assay [2] was at most 5 µM in each case. The GI50 in assay [3], in assay [4], in [5], in [6], in [7] and in assay [8] was at most 5 µM each time. Besides, the 50% growth inhibitory concentration (GI50) in assay [9] was at most 5 µM.

Turning to `CC[C@H](NC(=O)c1ccc2[nH]nc(-c3ccc(OC4CCN(C5COC5)CC4)cc3)c2c1)c1ccccc1Cl` [Example A193, (S)—N-(1-(2-chlorophenyl)propyl)-3-(4-((1-(oxetan-3-yl)piperidin-4-yl)oxy)phenyl)-1H-indazole-5-carboxamide], the half-inhibitory concentration (IC50) in assay [1], in assay [2] and in assay [10] was at most 5 µM in each case. Moreover, the GI50 in [3], in assay [4], in assay [5], in assay [6], in [7] and in [8] was at most 5 µM in each case. In addition, the GI50 in [9] is at most 5 µM.

Take `CN1CCC(Oc2ccc(-c3n[nH]c4ccc(C(=O)NC(c5ccccc5)C5CCCCC5)cc34)cc2)CC1` (centres unmarked) [Example A170, N-(cyclohexyl(phenyl)methyl)-3-(4-((1-methylpiperidin-4-yl)oxy)phenyl)-1H-indazole-5-carboxamide]: the IC50 in assay [1] and in assay [2] was at most 5 µM throughout. Also, the GI50 in [3], in [4], in assay [5], in assay [11], in assay [6] and in assay [7] was at most 5 µM each time. In addition, the GI50 in assay [8] and in assay [9] was at most 5 µM in each case.

In the case of `CC(C)OC(C(=O)Nc1ccc2[nH]nc(-c3ccc(OC4CCN(C)CC4)cc3)c2c1)c1ccccc1` (centres unmarked) [Example A187, 2-isopropoxy-N-(3-(4-((1-methylpiperidin-4-yl)oxy)phenyl)-1H-indazol-5-yl)-2-phenylacetamide], the IC50 in assay [1], in assay [2] and in assay [10] was at most 5 µM throughout. For the same compound, the 50% growth inhibitory concentration (GI50) in assay [3], in assay [4], in [5], in assay [6], in assay [7] and in assay [8] was at most 5 µM each time. Besides, the GI50 in [9] was at most 5 µM.

`CN1CCC(Oc2ccc(-c3n[nH]c4ccc(NC(=O)C(OC5CCCC5)c5ccccc5)cc34)cc2)CC1` (centres unmarked) [Example A183, 2-(cyclopentyloxy)-N-(3-(4-((1-methylpiperidin-4-yl)oxy)phenyl)-1H-indazol-5-yl)-2-phenylacetamide]: the IC50 in assay [1], in [2] and in [10] was at most 5 µM each time. The GI50 in assay [3], in assay [4], in [5], in assay [6], in assay [7] and in [8] was at most 5 µM each time. The GI50 in assay [9] is at most 5 µM.

As to `CN1CCC(Oc2ccc(-c3n[nH]c4ccc(NC(=O)C(c5ccsc5)N5CCC5)cc34)cc2)CC1` (centres unmarked) [Example A191, 2-(azetidin-1-yl)-N-(3-(4-((1-methylpiperidin-4-yl)oxy)phenyl)-1H-indazol-5-yl)-2-(thiophen-3-yl)acetamide], the IC50 in assay [1], in assay [2] and in assay [10] was at most 5 µM in each case. Besides, the GI50 in assay [3], in assay [4], in assay [5], in [6], in assay [7] and in [8] was at most 5 µM each time. In addition, the 50% growth inhibitory concentration (GI50) in assay [9] is at most 5 µM.

As for `CN1CCC(Oc2ccc(-c3n[nH]c4ccc(C(=O)NC(c5ccccc5)C5CC5)cc34)cc2Cl)CC1` (centres unmarked) [Example A188, 3-(3-chloro-4-((1-methylpiperidin-4-yl)oxy)phenyl)-N-(cyclopropyl(phenyl)methyl)-1H-indazole-5-carboxamide], the IC50 in assay [1], in assay [2] and in assay [10] was at most 5 µM throughout. Also, the GI50 in assay [3], in assay [4], in assay [5], in [6], in assay [7] and in assay [8] was at most 5 µM throughout. In addition, the GI50 in assay [9] is at most 5 µM.

Take `O=C(Nc1ccc2[nH]nc(-c3ccc(OC4CN(C5COC5)C4)cc3)c2c1)C(c1ccsc1)N1CCCC1` (centres unmarked) [Example A189, N-(3-(4-((1-(oxetan-3-yl)azetidin-3-yl)oxy)phenyl)-1H-indazol-5-yl)-2-(pyrrolidin-1-yl)-2-(thiophen-3-yl)acetamide]: the IC50 in assay [1], in [2] and in [10] was at most 5 µM each time. Also, the concentration for 50% growth inhibition (GI50) in assay [3] is 5 to 20 µM; in assay [4], at most 5 µM; in assay [5] it was at most 5 µM; in assay [6], at most 5 µM; in assay [7], 20 to 50 µM; in [8], at most 5 µM. In addition, in assay [9], the GI50 was at most 5 µM.

On to `O=C(NC(c1ccccn1)C1CC1)c1ccc2[nH]nc(-c3ccc(OC4CCN(C5COC5)CC4)cc3)c2c1` (centres unmarked) [Example A171, N-(cyclopropyl(pyridin-2-yl)methyl)-3-(4-((1-(oxetan-3-yl)piperidin-4-yl)oxy)phenyl)-1H-indazole-5-carboxamide], for which the IC50 in [1], in assay [2] and in assay [10] was at most 5 µM in each case. The GI50 in assay [4], in assay [5], in assay [11], in assay [6], in [7] and in [8] was at most 5 µM each time. In addition, the GI50 in [9] was at most 5 µM.
